Assay results published in patent publication US20250025518A1, “USE OF BIFIDOBACTERIUM LACTIS BL-99 IN PROTECTION OF CARTILAGE” (Inner Mongolia Yili Industrial Group Co., Ltd., priority 2021, published 2025).

Test system: zebrafish cartilage
Test: Evaluation of cartilage protection efficacy: fluorescence intensity of cartilage in dexamethasone-induced zebrafish cartilage damage model
Format: in vivo
Conditions: for Fluorescence intensity of cartilage (pixel, mean ± SE): n = 10

Q: With Chondroitin sulfate A sodium salt as the substance, how does the “Fluorescence intensity of cartilage (pixel, mean ± SE)” value (Table 2, 1000 μg/mL) read?
A: Its value is 277530 ± 20981 pixel.

Q: What about the “Increased cartilage protection efficacy (%) compared with the model group” value (Table 3, 1000 μg/mL) of the same substance?
A: The value was 44%.

Q: And the “Fluorescence intensity of cartilage (pixel, mean ± SE)” value (Table 3, 1000 μg/mL)?
A: Its value is 296517 ± 25160 pixel.
